Test systems include SK-MEL-5; T47D; LOX IMVI; HCC 2998; OVCAR-4; SF-268; 786-0; SK-OV-3; CAKI-1; Malme-3M; OVCAR-8; SNB-75; A498; HT-29; RXF 393; SN12C; ACHN; NCI-H522; DU-145; NCI/ADR-RES.
Common to all, as to test: NCI tumour cell line growth inhibition, 48 h

Each structure is given as a SMILES string.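 Growth conditions: 96-well plates. Treatment: test compound, 48 hours, 5 concentrations. Analysis: linear interpolation between bracketing concentrations; unreached endpoints set to highest concentration. GI50 marks 50% less growth.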 Activity calls are given as the source filed them. Cut-off read from the data, not from the text of the source: active = GI50 up to about 1.1 µM and inactive = higher. Bounds are passed on as bounds.

As to `c1ccc(CN2COc3c(ccc4c5c(ccc34)CN(Cc3ccccc3)CO5)C2)cc1`, the GI50 in the experiment with SK-MEL-5, in the experiment with T47D, with LOX IMVI, in the experiment on HCC 2998, with OVCAR-4 and in the experiment with SF-268 was > 100 µM (inactive) in each case. Moreover, the GI50 in the experiment on 786-0, in the experiment with SK-OV-3, in the experiment on CAKI-1, in the experiment on Malme-3M, in the experiment with OVCAR-8 and in the experiment on SNB-75 was > 100 µM (inactive) throughout. Also, the GI50 with A498, in the experiment on HT-29, in the experiment on RXF 393, in the experiment on SN12C, with ACHN and in the experiment on NCI-H522 was > 100 µM (inactive) throughout. In addition, the GI50 in the experiment on DU-145 and in the experiment with NCI/ADR-RES was > 100 µM (inactive) each time.
Consider `COc1cccc2c1C(CO)N1C(C#N)C3CC(C(=O)O)C(C1C2)N3C` (stereo not given), for which the GI50 with SK-MEL-5 was 1.69 µM (inactive); in the experiment with T47D, 0.324 µM (active); in the experiment with LOX IMVI it was 1.95 µM (inactive); in the experiment on HCC 2998, 0.405 µM (active); with OVCAR-4, 4.91 µM (inactive); with SF-268, 1.85 µM (inactive). The GI50 was 1.3 µM (inactive) in the experiment with 786-0; 3.6 µM (inactive) in the experiment with SK-OV-3; 1.29 µM (inactive) with CAKI-1; 1.92 µM (inactive) in the experiment with Malme-3M; 1.68 µM (inactive) in the experiment with OVCAR-8; 1.6 µM (inactive) in the experiment with SNB-75. Besides, the GI50 is 2.77 µM (inactive) in the experiment on A498; 1.64 µM (inactive) in the experiment on HT-29; 1.27 µM (inactive) in the experiment with RXF 393; 1.64 µM (inactive) in the experiment with SN12C; 3.36 µM (inactive) with ACHN; 0.0615 µM (active) in the experiment on NCI-H522. Also, the results for the GI50 in the experiment on DU-145 and in the experiment with NCI/ADR-RES were 0.481 µM (active) and 0.367 µM (active), respectively.
Take `COc1ccc2c(c1)c(=O)c1c(NCCNCCO)ccc3c(=O)n(CCN(C)C)c(=O)n2c31`: the GI50 was 0.0562 µM (active) in the experiment on SK-MEL-5; 0.0769 µM (active) with T47D; 0.0198 µM (active) with LOX IMVI; < 0.0337 µM (active) with HCC 2998; 0.0895 µM (active) with OVCAR-4; 0.103 µM (active) with SF-268. Also, the GI50 in the experiment with 786-0 is < 0.0117 µM (active); in the experiment on SK-OV-3, 0.251 µM (active); in the experiment with CAKI-1, 0.0537 µM (active); in the experiment with Malme-3M it was 0.0989 µM (active); with OVCAR-8 it was 0.0604 µM (active); in the experiment on SNB-75, 0.0933 µM (active). Also, the GI50 in the experiment on A498 was 0.116 µM (active); in the experiment on HT-29, 0.0352 µM (active); in the experiment on RXF 393 it was 0.114 µM (active); with SN12C, < 0.0198 µM (active); in the experiment with ACHN, 0.027 µM (active); with NCI-H522 it was < 0.0182 µM (active). The GI50 was < 0.0337 µM (active) with DU-145 and 1.26 µM (inactive) in the experiment with NCI/ADR-RES.
Consider `Oc1cccc2cc(Br)cnc12`, for which the GI50 was 6.5 µM (inactive) with SK-MEL-5; 4.3 µM (inactive) with T47D; 4.1 µM (inactive) in the experiment with LOX IMVI; 27.9 µM (inactive) in the experiment with HCC 2998; 2.86 µM (inactive) in the experiment with OVCAR-4; 2.33 µM (inactive) with SF-268. The GI50 with 786-0 was 31 µM (inactive); with SK-OV-3, 41.1 µM (inactive); with CAKI-1, 24.5 µM (inactive); with Malme-3M, 7.96 µM (inactive); in the experiment on OVCAR-8 it was 3.45 µM (inactive); in the experiment with SNB-75, 18 µM (inactive). Besides, the GI50 is 27.5 µM (inactive) in the experiment with A498; 23.1 µM (inactive) with HT-29; 16.7 µM (inactive) with RXF 393; 14.9 µM (inactive) in the experiment with SN12C; 6.03 µM (inactive) in the experiment on ACHN; 2.49 µM (inactive) in the experiment with NCI-H522. Moreover, the GI50 in the experiment with DU-145 is 28.2 µM (inactive); in the experiment with NCI/ADR-RES, 3.68 µM (inactive).
For `CC(=O)Oc1ccc2c3c1[C@@H]1O[C@@H]1c1cccc(c1-3)[C@@H]1O[C@H]21`, the GI50 with SK-MEL-5 is 1.61 µM (inactive); in the experiment with T47D, 2.14 µM (inactive); in the experiment on LOX IMVI it was 0.962 µM (active); in the experiment on HCC 2998 it was 2 µM (inactive); in the experiment with OVCAR-4 it was 2.03 µM (inactive); with SF-268, 2.11 µM (inactive). In addition, the GI50 in the experiment on 786-0 is 1.48 µM (inactive); in the experiment with SK-OV-3, 3.44 µM (inactive); in the experiment on CAKI-1 it was 1.59 µM (inactive); with Malme-3M, 1.86 µM (inactive); in the experiment with OVCAR-8, 1.54 µM (inactive); with SNB-75, 1.63 µM (inactive). Also, the GI50 was 2.19 µM (inactive) in the experiment with A498; 1.81 µM (inactive) with HT-29; 1.36 µM (inactive) in the experiment on RXF 393; 1.6 µM (inactive) in the experiment on SN12C; 1.84 µM (inactive) in the experiment on ACHN; 1.47 µM (inactive) in the experiment on NCI-H522. For the same compound, the figures for the GI50 in the experiment with DU-145 and in the experiment with NCI/ADR-RES were 1.91 µM (inactive) and 1.82 µM (inactive), respectively.
As to `C[C@@H](CC(=O)OCc1ccccc1)OC1OC(COC(=O)C(C)(C)C)C(OC(=O)C(C)(C)C)C(OC(=O)C(C)(C)C)C1OC(=O)C(C)(C)C` (stereo not given in full), the GI50 was 5.28 µM (inactive) in the experiment on SK-MEL-5; > 100 µM (inactive) in the experiment with T47D; > 100 µM (inactive) in the experiment with LOX IMVI; > 100 µM (inactive) in the experiment on HCC 2998; > 100 µM (inactive) in the experiment with OVCAR-4; > 100 µM (inactive) with SF-268. Also, the GI50 in the experiment with 786-0, in the experiment with SK-OV-3, in the experiment with CAKI-1, in the experiment with Malme-3M, in the experiment with OVCAR-8 and in the experiment on SNB-75 was > 100 µM (inactive) in each case. In addition, the GI50 in the experiment on A498, with HT-29, in the experiment on RXF 393, in the experiment with SN12C, with ACHN and in the experiment on NCI-H522 was > 100 µM (inactive) each time. For the same compound, the GI50 in the experiment with DU-145 and in the experiment with NCI/ADR-RES was > 100 µM (inactive) throughout.

Source of the values: ChEMBL document CHEMBL1201862, “PubChem BioAssay data set” (2004).
